In publication PMC8253220, “Molecular design, synthesis and in vitro biological evaluation of thienopyrimidine–hydroxamic acids as chimeric kinase HDAC inhibitors: a challenging approach to combat cancer” (Journal of Enzyme Inhibition and Medicinal Chemistry, 2021):
Where “and” joins values, the source holds several entries; their conditions need not be identical. Equal values may be shown once.

Tests used:
Assay in all cases: NCI one-dose screen
Type in all cases: cell-based, human
SN12C = settings: Renal SN12C, 10 µM single dose
Outline: (§1)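 At 10 μM, a single concentration, compounds were evaluated for antiproliferative effect in the NCI 60-line screen, with growth expressed relative to untreated control cells.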

SK-MEL-28 = settings: Melanoma SK-MEL-28, 10 µM single dose
Outline: (§2)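 Following the standard NCI-60 protocol, compounds were applied once at 10 μM to all 60 cancer lines. Read-out is percent growth versus untreated controls, expressed as inhibition %.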

NCI-H460 = settings: NSCLC NCI-H460, 10 µM single dose
Outline: as §1

DU-145 = settings: Prostate DU-145, 10 µM single dose
Outline: as §1

HCT-116 = settings: Colon HCT-116, 10 µM single dose
Outline: as §1

SF-295 = settings: CNS SF-295, 10 µM single dose
Outline: as §1

OVCAR-3 = settings: Ovarian OVCAR-3, 10 µM single dose
Outline: as §1

TK-10 = settings: Renal TK-10, 10 µM single dose
Outline: as §1

BT-549 = settings: Breast BT-549, 10 µM single dose
Outline: as §1

SF-268 = settings: CNS SF-268, 10 µM single dose
Outline: (§3)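 Single 10 μM dose, NCI-60 panel; read-out = % growth vs untreated controls → % inhibition.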

HOP-62 = settings: NSCLC HOP-62, 10 µM single dose
Outline: (§4)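 Compounds were tested at a single dose of 10 μM across the full NCI-60 cell line panel. Growth was expressed as percent growth relative to untreated control cells, reported as percent inhibition.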

NCI-H322M = settings: NSCLC NCI-H322M, 10 µM single dose
Outline: as §1

MALME-3M = settings: Melanoma MALME-3M, 10 µM single dose
Outline: as §1

COLO 205 = settings: Colon COLO 205, 10 µM single dose
Outline: as §1

MCF7 = settings: Breast MCF7, 10 µM single dose
Outline: as §3

OVCAR-8 = settings: Ovarian OVCAR-8, 10 µM single dose
Outline: as §1

HL-60(TB) = settings: Leukemia HL-60(TB), 10 µM single dose
Outline: as §1

PC-3 = settings: Prostate PC-3, 10 µM single dose
Outline: as §2

NCI-H226 = settings: NSCLC NCI-H226, 10 µM single dose
Outline: (§5)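 In vitro antiproliferative testing: NCI-60 panel, initial single dose 10 μM, inhibition % derived from percent growth of treated versus untreated control cells.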

HS 578T = settings: Breast HS 578T, 10 µM single dose
Outline: as §1

SF-539 = settings: CNS SF-539, 10 µM single dose
Outline: as §3

MDA-MB-231/ATCC = settings: Breast MDA-MB-231/ATCC, 10 µM single dose
Outline: as §1

SR = settings: Leukemia SR, 10 µM single dose
Outline: as §1

MOLT-4 = settings: Leukemia MOLT-4, 10 µM single dose
Outline: as §3

SW-620 = settings: Colon SW-620, 10 µM single dose
Outline: as §2

RXF 393 = settings: Renal RXF 393, 10 µM single dose
Outline: as §1

ACHN = settings: Renal ACHN, 10 µM single dose
Outline: as §1

NCI/ADR-RES = settings: Ovarian NCI/ADR-RES, 10 µM single dose
Outline: as §1

CAKI-1 = settings: Renal CAKI-1, 10 µM single dose
Outline: as §1

UACC-62 = settings: Melanoma UACC-62, 10 µM single dose
Outline: as §1

EKVX = settings: NSCLC EKVX; for Growth Percent: 10 µM single dose
Outline: as §5

CCRF-CEM = settings: Leukemia CCRF-CEM, 10 µM single dose
Outline: as §1

LOX IMVI = settings: Melanoma LOX IMVI, 10 µM single dose
Outline: as §1

SNB-19 = settings: CNS SNB-19, 10 µM single dose
Outline: as §4

NCI-H522 = settings: for Growth Percent: NSCLC NCI-H522, 10 µM single dose
Outline: as §5

A549/ATCC = settings: NSCLC A549/ATCC, 10 µM single dose
Outline: as §1

U251 = settings: CNS U251, 10 µM single dose
Outline: as §5

SMILES | Growth Percent (SN12C) | Growth Percent (SK-MEL-28) | Growth Percent (NCI-H460) | Growth Percent (DU-145) | Growth Percent (HCT-116) | Growth Percent (SF-295) | Growth Percent (OVCAR-3) | Growth Percent (TK-10) | Growth Percent (BT-549) | Growth Percent (SF-268) | Growth Percent (HOP-62) | Growth Percent (NCI-H322M) | Growth Percent (MALME-3M) | Growth Percent (COLO 205) | Growth Percent (MCF7) | Growth Percent (OVCAR-8) | Growth Percent (HL-60(TB)) | Growth Percent (PC-3) | Growth Percent (NCI-H226) | Growth Percent (HS 578T) | other results
Cc1c(C(=O)NO)sc2ncnc(Nc3ccc(Cl)cc3)c12 [Compound 15c, 4–(4-chlorophenylamino)-N-hydroxy-5-methylthieno[2,3-d]pyrimidine-6-carboxamide] | 98.6% and 98.63% | 110.6% and 110.64% | 98.9% and 98.93% | 108.8% and 108.86% | 100.9% and 100.92% | 102.7% and 102.79% | 98.9% and 98.94% | 154.5% and 154.58% | 116.4% and 116.44% | 94.8% and 94.84% | 92.8% and 92.81% | 97.2% and 97.24% | 102.3% and 102.31% | 116.7% and 116.75% | 88.6% | 102.0% and 102.02% | 104.9% and 104.93% | 97.6% and 97.64% | 85.6% and 85.66% | 102.5% and 102.54% | Growth Percent (SF-539): 104.0%; Growth Percent (MDA-MB-231/ATCC): 88.1% and 88.18%; Growth Percent (SR): 102.7% and 102.79%; Growth Percent (MOLT-4): 102.3% and 102.36%; Growth Percent (SW-620): 102.6% and 102.65%; Growth Percent (RXF 393): 106.7% and 106.75%; Growth Percent (ACHN): 97.3% and 97.37%; Growth Percent (NCI/ADR-RES): 102.1% and 102.16%; Growth Percent (CAKI-1): 86.4% and 86.45%; Growth Percent (UACC-62): 92.4% and 92.45%; inhibition at 10 µM (EKVX; Homo sapiens, 10 μM): 20.6%; Growth Percent (EKVX): 79.4% and 79.43%; Growth Percent (CCRF-CEM): 103.4% and 103.44%; Growth Percent (LOX IMVI): 95.8% and 95.88%; Growth Percent (SNB-19): 94.8% and 94.85%; inhibition at 10 µM (NCI-H522; Homo sapiens, NSCLC NCI-H522, 10 μM): 25.4%; Growth Percent (NCI-H522): 74.5% and 74.57%; Growth Percent (A549/ATCC): 105.8% and 105.88%; Growth Percent (U251): 100.9% and 100.96%
Cc1c(C(=O)NO)sc2ncnc(Nc3ccccc3)c12 [Compound 15b, N-hydroxy-5-methyl-4-(phenylamino)thieno[2,3-d]pyrimidine-6-carboxamide] | 92.8% and 92.82% | 100.9% and 100.91% | 101.6% and 101.66% | 100.1% and 100.13% | 102.9% | 91.9% and 91.96% | 96.9% and 96.92% | 123.2% and 123.28% | 112.4% and 112.44% | 91.8% and 91.83% | 103.6% and 103.61% | 101.8% and 101.81% | 101.18% | 115.6% and 115.62% | 87.2% and 87.27% | 104.4% and 104.46% | 103.0% and 103.03% | 100.1% and 100.15% | 89.3% and 89.32% | 104.7% and 104.75% | Growth Percent (SF-539): 92.8% and 92.86%; Growth Percent (MDA-MB-231/ATCC): 100.3% and 100.34%; Growth Percent (SR): 78.2%; Growth Percent (MOLT-4): 103.5%; Growth Percent (SW-620): 89.5% and 89.53%; Growth Percent (RXF 393): 97.2% and 97.22%; Growth Percent (ACHN): 95.0% and 95.07%; Growth Percent (NCI/ADR-RES): 96.1% and 96.17%; Growth Percent (CAKI-1): 77.6% and 77.61%; Growth Percent (UACC-62): 92.5% and 92.58%; Growth Percent (EKVX): 92.7% and 92.76%; Growth Percent (CCRF-CEM): 98.7% and 98.78%; Growth Percent (LOX IMVI): 96.0% and 96.03%; Growth Percent (SNB-19): 93.0% and 93.06%; Growth Percent (NCI-H522): 86.6% and 86.62%; Growth Percent (A549/ATCC): 98.3% and 98.37%; Growth Percent (U251): 90.0% and 90.06%
